Assay results published in paper PMC11855478, “Bicyclic N,S-Acetals Containing Fused Cysteine-Amide System as New Heterocyclic Class Targeting Human Farnesyltransferase (FTase-h)” (International Journal of Molecular Sciences, 2025).

Assays:
[1] = system: panel of 60 human cancer cell lines; experiment: NCI 60 cell panel one dose screen (whole panel); assay type: cell-based; set-up: Delta (One Dose Mean Graph): unit not given here; conditions: 1.00E-5 Molar one dose; for Range (One Dose Mean Graph): in % (unit assumed); for Mean Growth Percent: mean over tested cell lines
Experimental: (§1) 3.4. Cell Proliferation Assay
Selected compounds were tested on a panel of 60 human cancer cell lines at the National Cancer Institute (NCI), Germantown, MD, USA. The cytotoxicity studies were conducted using a 48 h exposure protocol using the sulfo-rhodamine B assay. […]
X. NCI One Dose Mean Graph of sulfides 4a(A -J) and 4b(A-J)
The entire series of sulfides regrouping twenty synthesized FTI-candidates (4aA-J, 4bA-J) were selected by the National Cancer Institute (NCI) for evaluation of their antiproliferative activity against 60 cancer cell lines (see the followings twenty pages for full evaluation reports). […]
inhibiting 36% of the NCI-H522 cells. Such difference between IC50 on human FTase in the nanomolar range and IC50 on cancer cell growth in the micromolar range is characteristic to potent FTIs and was reported previously on different series of compounds (see for example ref erence in the references part […]
Of interest, none of the tested compounds at a high single dose (10 µM) in the full NCI 60 cell panel has shown a cytotoxic profile. […]
inhibitory potential on FTase raise good hope for further investigation of these series as agents fighting

HCT-116 (Colon Cancer) = experiment: NCI one dose, HCT-116; assay type: cell-based, human; conditions: HCT-116, 1.00E-5 Molar one dose
Experimental: as §1
(§2) Selected compounds were tested on a panel of 60 human cancer cell lines at the National Cancer Institute (NCI), Germantown, MD, USA. The cytotoxicity studies were conducted using a 48 h exposure protocol using the sulfo-rhodamine B assay.

UACC-257 melanoma cells = experiment: NCI one dose, UACC-257; assay type: cell-based, human; conditions: for Growth Percent: UACC-257, 1.00E-5 Molar one dose
Experimental: as §1, §2

PC-3 (Prostate Cancer) = experiment: NCI one dose, PC-3; assay type: cell-based, human; conditions: PC-3, 1.00E-5 Molar one dose
Experimental: as §1, §2

ACHN (Renal Cancer) = experiment: NCI one dose, ACHN; assay type: cell-based, human; conditions: 1.00E-5 Molar one dose
Experimental: as §1, §2

[2] = system: MDA-MB-468 breast cancer cells; experiment: NCI one dose, MDA-MB-468; assay type: cell-based, human; conditions: for Growth Percent: MDA-MB-468, 1.00E-5 Molar one dose
Experimental: as §1, §2

SK-MEL-28 (Melanoma) = experiment: NCI one dose, SK-MEL-28; assay type: cell-based, human; conditions: SK-MEL-28, 1.00E-5 Molar one dose
Experimental: as §1, §2

[3] = system: A549/ATCC (Non-Small Cell Lung Cancer); experiment: NCI one dose, A549/ATCC; assay type: cell-based, human; conditions: 1.00E-5 Molar one dose
Experimental: as §1, §2

[4] = system: NCI-H23 (Non-Small Cell Lung Cancer); experiment: NCI one dose, NCI-H23; assay type: cell-based, human; conditions: NCI-H23, 1.00E-5 Molar one dose
Experimental: as §1, §2

HCC-2998 (Colon Cancer) = experiment: NCI one dose, HCC-2998; assay type: cell-based, human; conditions: HCC-2998, 1.00E-5 Molar one dose
Experimental: as §1, §2

IGROV1 (Ovarian Cancer) = experiment: NCI one dose, IGROV1; assay type: cell-based, human; conditions: IGROV1, 1.00E-5 Molar one dose
Experimental: as §1, §2

SNB-75 (CNS Cancer) = experiment: NCI one dose, SNB-75; assay type: cell-based, human; conditions: SNB-75, 1.00E-5 Molar one dose
Experimental: as §1, §2

[5] = system: HOP-62 (Non-Small Cell Lung Cancer); experiment: NCI one dose, HOP-62; assay type: cell-based, human; conditions: HOP-62, 1.00E-5 Molar one dose
Experimental: as §1, §2

MALME-3M (Melanoma) = experiment: NCI one dose, MALME-3M; assay type: cell-based, human; conditions: 1.00E-5 Molar one dose
Experimental: as §1, §2

SK-MEL-2 (Melanoma) = experiment: NCI one dose, SK-MEL-2; assay type: cell-based, human; conditions: SK-MEL-2, 1.00E-5 Molar one dose
Experimental: as §1, §2

[6] = biological target: human farnesyltransferase (FTase) (Homo sapiens, UniProt P49354+P49356); experiment: FTase inhibitory assay (fluorescence, Dansyl-GCVLS); assay type: biochemical; conditions: for % FTI: inhibition of human FTase at 100 μM of tested compound, mean of two experiments
Experimental: With 40 new products in hand, the determination of their inhibitory activity on human farnesyl-transferase (FTase) in vitro was first undertaken. Dimethyl sulfoxide (DMSO) was used as the negative control, and Chaetomellic acid A was the positive reference in all assays. At the outset, and in order to select only significant results, products with an inhibitory power greater than 60% at an initial screening concentration of 100 µM were retained for the determination of their IC50 and, therefore, for further discussion. Moreover, given the number of products tested, they are grouped into three subfamilies on the basis of the degree of the sulphur atom oxidation (series of sulfides, series of sulfoxides, and series of sulfones), and the results obtained are grouped in Table 1, Table 2 and Table 3.
3.3. FTase Inhibitory Assay
Assays were realized in 96-well plates, prepared with a Biomek NKMC and a Biomek 3000 from Beckman Coulter, and read on a Wallac Victor fluorimeter from PerkinElmer. Per well, 20 µL of farnesyl pyrophosphate (10 μM) was added to 180 µL of a solution containing 2 µL of varied concentrations of potential inhibitors (dissolved in DMSO) and 178 μL of a solution composed of 10 μL of partially purified recombinant human FTase (15 µg mL^−1) and 1.0 µL of Dansyl-GCVLS peptide (in the following buffer: 5.6 mM DTT, 5.6 mM MgCl2, 12 μM ZnCl2 and 0.2% (w/v) octyl-β-D-glucopyranoside, 52 mM Tris/HCl, pH 7.5). Fluorescence was recorded for 15 min (0.7 s per well, 20 repeats) at 30 °C with an excitation filter at 340 nm and an emission filter of 486 nm. Each measurement was reproduced twice, in duplicate. The kinetic experiments were realized under the same conditions, either with FPP as varied substrate with a constant concentration of Dns-GCVLS of 2.5 μM or with Dns-GCVLS as varied substrate with a constant concentration of FPP of 10 μM. Non-linear regressions were performed using the Excel software.

SF-268 (CNS Cancer) = experiment: NCI one dose, SF-268; assay type: cell-based, human; conditions: SF-268, 1.00E-5 Molar one dose
Experimental: as §1, §2

MOLT-4 (Leukemia) = experiment: NCI one dose, MOLT-4; assay type: cell-based, human; conditions: MOLT-4, 1.00E-5 Molar one dose
Experimental: as §1, §2

A498 (Renal Cancer) = experiment: NCI one dose, A498; assay type: cell-based, human; conditions: A498, 1.00E-5 Molar one dose
Experimental: as §1, §2

HCT-15 (Colon Cancer) = experiment: NCI one dose, HCT-15; assay type: cell-based, human; conditions: HCT-15, 1.00E-5 Molar one dose
Experimental: as §1, §2

U251 (CNS Cancer) = experiment: NCI one dose, U251; assay type: cell-based, human; conditions: U251, 1.00E-5 Molar one dose
Experimental: as §1, §2

Row | SMILES | Delta (One Dose Mean Graph) [1] | Range (One Dose Mean Graph) [1] | Mean Growth Percent [1] [%] | Growth Percent (HCT-116 (Colon Cancer)) [%] | Growth Percent (UACC-257 melanoma cells) [%] | Growth Percent (PC-3 (Prostate Cancer)) [%] | Growth Percent (ACHN (Renal Cancer)) [%] | Growth Percent [2] [%] | Growth Percent (SK-MEL-28 (Melanoma)) [%] | Growth Percent [3] [%] | Growth Percent [4] [%] | Growth Percent (HCC-2998 (Colon Cancer)) [%] | Growth Percent (IGROV1 (Ovarian Cancer)) [%] | Growth Percent (SNB-75 (CNS Cancer)) [%] | Growth Percent [5] [%] | Growth Percent (MALME-3M (Melanoma)) [%] | Growth Percent (SK-MEL-2 (Melanoma)) [%] | % FTI [6] [%] | Growth Percent (SF-268 (CNS Cancer)) [%] | Growth Percent (MOLT-4 (Leukemia)) [%] | further results
1 | COc1cc(CNC(=O)[C@@H]2CS[C@@]3(C)c4ccccc4C(=O)N23)cc(OC)c1OC [4bJ] | 27.08 | 43.64 | 95.84 | 98.10 | 73.76 | 89.97 | 97.41 | 89.65 | 103.28 | 83.12 | 96.92 | 95.49 | 106.56 | 97.50 | 90.09 | 108.52 | 89.27 | 74 | 101.09 | 81.24 | IC50 ([6]; human FTase): 4.35 µM; IC50 ([6]; human FTase in vitro): 4.35 µM; Growth Percent (A498 (Renal Cancer)): 90.55%; Growth Percent (HCT-15 (Colon Cancer)): 105.84%; Growth Percent (U251 (CNS Cancer)): 82.69%
2 | C[C@@]12SC[C@@H](C(=O)NCc3ccc(Cl)cc3Cl)N1C(=O)c1ccccc12 [4bH] | 23.83 | 40.77 | 95.56 | 96.09 | 79.49 | 78.16 | 106.47 | 88.80 | 108.92 | 77.42 | 94.51 | 99.28 | 100.21 | 99.75 | 103.25 | 108.23 | 92.79 | 22 | 99.59 | 83.18 | Growth Percent (A498 (Renal Cancer)): 77.10%; Growth Percent (HCT-15 (Colon Cancer)): 105.31%; Growth Percent (U251 (CNS Cancer)): 90.46%
3 | COc1ccc(CNC(=O)[C@@H]2CS[C@@]3(C)c4ccccc4C(=O)N23)cc1OC [4bI] | 38.86 | 57.76 | 93.56 | 95.39 | 73.35 | 88.41 | 96.90 | 70.36 | 104.89 | 79.51 | 82.91 | 96.29 | 104.59 | 110.74 | 97.01 | 106.59 | 79.40 | 78 | 99.31 | 76.47 | inhibition at 10 µM (UACC-257 melanoma cells; Homo sapiens, UACC-257, 10 µM single dose, read-out: inhibition of growth of UACC-257 melanoma cells): 27%; inhibition at 10 µM ([2]; Homo sapiens, MDA-MB-468, 10 µM single dose, read-out: inhibition of growth of MDA-MB-468 breast cancer cells): 30%; IC50 ([6]; human FTase in vitro): 0.0251 µM; Growth Percent (A498 (Renal Cancer)): 83.43%; Growth Percent (HCT-15 (Colon Cancer)): 112.46%; Growth Percent (U251 (CNS Cancer)): 93.58%
4 | C[C@@]12SC[C@@H](C(=O)NCc3ccccc3)N1C(=O)c1ccccc12 [4bA] | 22.99 | 45.00 | 97.89 | 97.31 | 79.51 | 90.34 | 102.90 | 99.04 | 105.22 | 78.86 | 98.21 | 113.03 | 105.63 | 88.09 | 100.09 | 107.28 | 92.83 | 49 | 109.78 | 93.49 | Growth Percent (A498 (Renal Cancer)): 91.48%; Growth Percent (HCT-15 (Colon Cancer)): 98.84%; Growth Percent (U251 (CNS Cancer)): 92.28%
